Legend:
[1] = Cytotoxicity against human A549 cells by Alamar Blue assay
[2] = Cytotoxicity against human DLD1 cells by Alamar Blue assay; format: functional, cell-based; conditions: DLD-1
[3] = Cytotoxicity against human LNCAP cells by Alamar Blue assay; format: functional, cell-based
[4] = Antiinflammatory activity in human neutrophils assessed as inhibition of fMLP/CB-induced superoxide anion generation by measuring superoxide dismutase-inhibitable reduction of ferricytochrome c at 10 uM preincubated for 5 mins followed by fMLP/CB-induction measured after 10 mins; format: functional; conditions: Neutrophil
[5] = Antiinflammatory activity in human neutrophils assessed as inhibition of fMLP/CB-induced superoxide anion generation by measuring superoxide dismutase-inhibitable reduction of ferricytochrome c at 20 uM preincubated for 5 mins followed by fMLP/CB-induction measured after 10 mins; format: functional; conditions: Neutrophil
[6] = Antiinflammatory activity in human neutrophils assessed as inhibition of fMLP/CB-induced elastase release at 10 uM using MeO-Suc-Ala-Ala-Pro-Val-p-nitroanilide as elastase substrate preincubated for 5 mins followed by fMLP/CB-induction; format: functional; conditions: Neutrophil
[7] = Antiinflammatory activity in human neutrophils assessed as inhibition of fMLP/CB-induced elastase release at 20 uM using MeO-Suc-Ala-Ala-Pro-Val-p-nitroanilide as elastase substrate preincubated for 5 mins followed by fMLP/CB-induction; format: functional; conditions: Neutrophil
[8] = system: Serratia marcescens; experiment: Antibacterial activity against Serratia marcescens ATCC 25419 assessed as zone of inhibition at 100 ug/disk measured after 24 hrs by agar disk-diffusion method; format: functional; conditions: ATCC 25419, 24 h, read-out: IZ
[9] = system: Yersinia enterocolitica; experiment: Antibacterial activity against Yersinia enterocolitica ATCC 23715 assessed as zone of inhibition at 100 ug/disk measured after 24 hrs by agar disk-diffusion method; format: functional; conditions: ATCC 23715, 24 h, read-out: IZ
[10] = system: Klebsiella aerogenes; experiment: Antibacterial activity against Enterobacter aerogenes ATCC 13048 assessed as zone of inhibition at 100 ug/disk measured after 24 hrs by agar disk-diffusion method; format: functional; conditions: ATCC 13048, 24 h, read-out: IZ

C=C1C[C@@H](O)[C@@H](Br)C(C)(C)[C@@]12C=C/C(=C/Br)CC2
IC50 [1]: ≥ 10 µM
IC50 [2]: ≥ 10 µM
IC50 [3]: ≥ 10 µM
inhibition at 10 µM [4]: 18%
inhibition at 20 µM [5]: 10%
inhibition at 10 µM [6]: 34%
inhibition at 20 µM [7]: 69%

C=C1C[C@@H](O)[C@@H](Br)C(C)(C)[C@@]12C=C[C@](O)(CO)CC2
IC50 [1]: ≥ 10 µM
IC50 [2]: ≥ 10 µM
IC50 [3]: ≥ 10 µM
inhibition at 10 µM [4]: 7%
inhibition at 20 µM [5]: 14%
inhibition at 10 µM [6]: 9%
inhibition at 20 µM [7]: 29%

C=C1C[C@@H](O)[C@@H](Br)C(C)(C)[C@]12CCC(=O)[C@H]1O[C@H]12
IC50 [1]: ≥ 10 µM
IC50 [2]: ≥ 10 µM
IC50 [3]: ≥ 10 µM
inhibition at 10 µM [4]: 6%
inhibition at 20 µM [5]: 6%
inhibition at 10 µM [6]: 3%
inhibition at 20 µM [7]: 14%

CC1=CC(=O)CC(C)(C)[C@@]12C=C/C(=C\Br)CC2
IC50 [1]: ≥ 10 µM
IC50 [2]: ≥ 10 µM
IC50 [3]: ≥ 10 µM
zone of inhibition at 100 µg/disc [8]: 8 mm
inhibition at 10 µM [4]: 6%
inhibition at 20 µM [5]: 12%
inhibition at 10 µM [6]: 3%
inhibition at 20 µM [7]: 14%

C=C1C[C@@H](O)[C@@H](Br)C(C)(C)[C@@]12C=C[C@](O)(C(Br)Br)CC2
IC50 [1]: ≥ 10 µM
IC50 [2]: ≥ 10 µM
IC50 [3]: ≥ 10 µM
zone of inhibition at 100 µg/disc [8]: 2 mm
zone of inhibition at 100 µg/disc [9]: 4 mm
inhibition at 10 µM [4]: 19%
inhibition at 20 µM [5]: 32%
inhibition at 10 µM [6]: 9%
inhibition at 20 µM [7]: 33%

C=C1CC[C@]2(C[C@@H]1O)C(=C)C[C@H](O)[C@@H](Br)C2(C)C
IC50 [1]: ≥ 10 µM
IC50 [2]: ≥ 10 µM
IC50 [3]: ≥ 10 µM
inhibition at 10 µM [4]: 10%
inhibition at 20 µM [5]: 14%
inhibition at 10 µM [6]: 5%
inhibition at 20 µM [7]: 24%

Cc1ccc([C@]2(C)C[C@H](O)[C@@H](Br)C2(C)C)cc1
IC50 [1]: ≥ 10 µM
IC50 [2]: ≥ 10 µM
IC50 [3]: ≥ 10 µM
inhibition at 10 µM [4]: 17%
inhibition at 20 µM [5]: 26%
inhibition at 10 µM [6]: 7%
inhibition at 20 µM [7]: 28%

CC1=CC(=O)CC(C)(C)[C@@]12C=C/C(=C/Br)CC2
IC50 [1]: ≥ 10 µM
IC50 [2]: ≥ 10 µM
IC50 [3]: ≥ 10 µM
inhibition at 10 µM [4]: 7%
inhibition at 20 µM [5]: 10%
inhibition at 10 µM [6]: 5%
inhibition at 20 µM [7]: 30%

CC1=C[C@H](O)[C@@H](Br)C(C)(C)[C@@]12C=C[C@](C)(O)CC2
IC50 [1]: ≥ 10 µM
IC50 [2]: ≥ 10 µM
IC50 [3]: ≥ 10 µM
inhibition at 10 µM [4]: 13%
inhibition at 20 µM [5]: 12%
inhibition at 10 µM [6]: 1%
inhibition at 20 µM [7]: 12%

C=C1C[C@@H](O)[C@@H](Br)C(C)(C)[C@]12CC[C@](C)(Br)[C@@H](Cl)C2
IC50 [1]: ≥ 10 µM
IC50 [2]: ≥ 10 µM
IC50 [3]: ≥ 10 µM
zone of inhibition at 100 µg/disc [10]: 2 mm
zone of inhibition at 100 µg/disc [8]: 2 mm
zone of inhibition at 100 µg/disc [9]: 2 mm
inhibition at 10 µM [4]: 25%
inhibition at 20 µM [5]: 48%
inhibition at 10 µM [6]: 44%
inhibition at 20 µM [7]: 60%

CO[C@@]1(C)CC[C@]2(C[C@H]1Br)C(C)=C[C@H](O)CC2(C)C
IC50 [1]: ≥ 10 µM
IC50 [2]: ≥ 10 µM
IC50 [3]: ≥ 10 µM
inhibition at 10 µM [4]: 12%
inhibition at 20 µM [5]: 10%
inhibition at 10 µM [6]: 5%
inhibition at 20 µM [7]: 24%

CC1=C[C@H](O)CC(C)(C)[C@]12CC[C@](C)(Br)[C@H](Cl)C2
IC50 [1]: ≥ 10 µM
IC50 [2]: ≥ 10 µM
IC50 [3]: ≥ 10 µM
inhibition at 10 µM [4]: 12%
inhibition at 20 µM [5]: 14%
inhibition at 10 µM [6]: 12%
inhibition at 20 µM [7]: 19%

CC1(C)[C@H](Br)[C@H](O)C[C@@]2(CO2)[C@@]12CCC(=O)[C@@H]1O[C@@H]12
IC50 [1]: ≥ 10 µM
IC50 [2]: ≥ 10 µM
IC50 [3]: ≥ 10 µM
inhibition at 10 µM [4]: 9%
inhibition at 20 µM [5]: 8%
inhibition at 10 µM [6]: 2%
inhibition at 20 µM [7]: 18%

C=C1C[C@@H](O)[C@@H](Br)C(C)(C)[C@@]12C=CC(=O)CC2
IC50 [1]: ≥ 10 µM
IC50 [2]: ≥ 10 µM
IC50 [3]: ≥ 10 µM
zone of inhibition at 100 µg/disc [10]: 3 mm
inhibition at 10 µM [4]: 7%
inhibition at 20 µM [5]: 13%
inhibition at 10 µM [6]: 9%
inhibition at 20 µM [7]: 14%

C=C1C[C@@H](O)[C@@H](Br)C(C)(C)[C@@]12C=C/C(=C\Br)CC2
IC50 [1]: ≥ 10 µM
IC50 [2]: ≥ 10 µM
IC50 [3]: ≥ 10 µM
zone of inhibition at 100 µg/disc [8]: 4 mm
zone of inhibition at 100 µg/disc [9]: 3 mm
inhibition at 10 µM [4]: 24%
inhibition at 20 µM [5]: 10%
inhibition at 10 µM [6]: 8%
inhibition at 20 µM [7]: 12%

CC1=CC(=O)CC(C)(C)[C@@]12C=CC(=O)CC2
IC50 [1]: ≥ 10 µM
IC50 [2]: ≥ 10 µM
IC50 [3]: ≥ 10 µM
inhibition at 10 µM [4]: 4%
inhibition at 20 µM [5]: 16%
inhibition at 10 µM [6]: 18%
inhibition at 20 µM [7]: 32%

CC1(C)S[C@@H]2[C@H](NC(=O)[C@H](N)c3ccccc3)C(=O)N2[C@H]1C(=O)O [AMPICILLIN]
zone of inhibition at 100 µg/disc [10]: 11 mm
zone of inhibition at 100 µg/disc [8]: 5 mm
zone of inhibition at 100 µg/disc [9]: 8 mm

COc1cccc2c1C(=O)c1c(O)c3c(c(O)c1C2=O)C[C@@](O)(C(=O)CO)C[C@@H]3O[C@H]1C[C@H](N)[C@H](O)[C@H](C)O1 [DOXORUBICIN]
IC50 [2]: 2.6 µM
IC50 [3]: 1.4 µM

CC[C@H](Nc1ncnc2[nH]cnc12)c1nc2cccc(F)c2c(=O)n1-c1ccccc1 [IDELALISIB]
inhibition at 10 µM [4]: 103%
inhibition at 10 µM [6]: 100%

C=C1C[C@H](O)[C@@H](Br)C(C)(C)[C@@]12C=C[C@](C)(O)CC2 [ISORIGIDOL]
IC50 [1]: ≥ 10 µM
IC50 [2]: ≥ 10 µM
IC50 [3]: ≥ 10 µM
inhibition at 10 µM [4]: 11%
inhibition at 20 µM [5]: 23%
inhibition at 10 µM [6]: 9%
inhibition at 20 µM [7]: 12%

C=C1C[C@@H](O)[C@@H](Br)C(C)(C)[C@@]12C=C[C@@](O)(C(Br)Br)CC2 [MAILIOHYDRIN]
IC50 [1]: ≥ 10 µM
IC50 [2]: ≥ 10 µM
IC50 [3]: ≥ 10 µM
zone of inhibition at 100 µg/disc [10]: 1 mm
zone of inhibition at 100 µg/disc [8]: 2 mm
zone of inhibition at 100 µg/disc [9]: 2 mm
inhibition at 10 µM [4]: 13%
inhibition at 20 µM [5]: 16%
inhibition at 10 µM [6]: 16%
inhibition at 20 µM [7]: 22%

— ChEMBL document CHEMBL3867445, “Halogenated Sesquiterpenoids from the Red Alga Laurencia tristicha Collected in Taiwan” (J Nat Prod, 2016)
